Literature values in patent US8524202B2, “Tooth whitening compositions and methods” (priority 2008, dated 2013).

Settings: at six months; concentrations 16%-18% carbamide peroxide; Brunton et al., 2004

For `NC(N)=O.OO` [carbamide peroxide], the “rebound, patients” value is listed as 40%.
